Assay results from patent US7544703B2, “Cyclic compound having 4-pyridylalkylthio group having substituted or unsubstituted amino group introduced therein” (Santen Pharmaceutical Co., Ltd., priority 2004, dated 2009).
Counter-ions that a name gives are not always drawn.

How the values were obtained:
[1] = tested on: choroidal neovascularization models in rats; assay: Neovascularization incidence test using laser-induced choroidal neovascularization models in rats; assay type: in vivo; conditions: 168 h; Brown Norway rat, krypton laser photocoagulation; 30 mg/kg/day oral once a day for 7 days; fluorescein fundus photography on day 7; average of 3 to 4 rats and 6 to 8 eyes; read-out: Ratio of neovascularization incidence rate (% of Control)
Method: A neovascularization incidence test of the compounds of the present invention was performed using a choroidal neovascularization model in rats, which is one of the widely-used methods of evaluating in vivo choroidal neovascularization inhibitory effects of drugs.
As one of the widely-used methods of evaluating choroidal neovascularization inhibitory effects of drugs, a neovascularization incidence test using choroidal neovascularization models in rats was reported in Graefe's Arch. Cli. Exp. Ophthalmol., 235, 313-319 (1997). According to the method described in the above-mentioned document, a neovascularization incidence test of the compounds of the present invention was performed, the ratio of neovascularization incidence rate of each of the compounds of the present invention administration groups to a neovascularization incidence rate of vehicle administration group (control group) was calculated, and the choroidal neovascularization inhibitory effect of each of the compounds of the present invention was evaluated using the obtained ratio as an index.
A 1% aqueous methyl cellulose solution was added to each test compound to suspend it, whereby a 6 mg/10 mL test compound suspension was prepared.
• 1) A 7:1 mixed solution (1 mL/kg) of a 5% ketamine hydrochloride injection and a 2% xylazine hydrochloride injection was administered intramuscularly to rats (Brown Norway male rat, 8 weeks of age, weight: 200 to 250 g) to anesthetize them systemically. • 2) A tropicamide-phenylephrine hydrochloride ophthalmic solution (trade name: Mydrin-P) was instilled into eyes to cause mydriasis, and then photocoagulation was performed in a Bruch's membrane of each rat using a krypton laser photocoagulation apparatus.
The laser photocoagulation was performed at 8 spots per eye sparsely avoiding thick retinal vessels in a posterior section of ocular fundus and focusing on the deep layer of the retina. Photocoagulation conditions were adjusted to 100 μm of spot size, 100 mW of intensity and 0.1 sec. dulation. • 3) After the photocoagulation, the ocular fundus was photographed to confirm photocoagulation (laser irradiation) sites. (Method of Test and Method of Measurement) • 1) From the laser photocoagulation day (i.e. on day 0) to day 6, the test compound suspension (30 mg/kg/day) was administered orally once a day for 7 consecutive days. • 2) As the vehicle administration group (control group), a test was performed in the same manner as in 1) except that the 1% aqueous methyl cellulose solution was used instead of the test compound suspension, and the result was used as a control. (Method of Evaluation) • 1) On day 7 after the photocoagulation, 0.1 mL of a 10% aqueous fluorescein solution was injected into a tail vein of the rat, and fluorescein fundus photography was performed. • 2) Next, in the fluorescein fundus photography, a spot where fluorescence leak was not observed was judged as negative, and a spot where fluorescence leak was observed was judged as positive. Photocoagulation sites where a little fluorescence leak was observed were judged as positive when two such sites are present. • 3) The neovascularization incidence rate was calculated according to the calculation equation 1. The ratio of the neovascularization incidence rate of the test compound administration group to that of the vehicle administration group was calculated according to the calculation equation 2 using the neovascularization incidence rate of the respective administration groups. […]

B16 cells = assay: Tumor growth inhibitory action test using cancer models in mice (B16 cells); assay type: in vivo; conditions: C57BL/6N mouse, B16 cells intradermal; 100 mg/kg/day oral once a day, day 0 to day 10; average of 9 mice per group; read-out: Tumor tissue weight inhibition rate (%)
Method: A tumor growth inhibitory action test of the compounds of the present invention was performed using a tumor growth model in mice, which is one of the widely-used methods of evaluating in vivo anticancer effects of drugs.
As one of the widely-used methods of evaluating anticancer effects of drugs, a tumor growth inhibitory action test using cancer models in mice has been reported in Cancer Res., 59, 5209-5218 (1999). According to the method described in the above-mentioned document, a tumor growth inhibitory action test of the compounds of the present invention was performed, the tumor tissue weight inhibition rate was calculated, and the anticancer effect of each of the compounds of the present invention was evaluated using the obtained rate as an index.
A 1% aqueous methyl cellulose solution was added to each test compound to suspend it with a sonicator, whereby a 10 mg/mL test compound suspension was prepared.
Physiological saline was added to B16 cells, whereby a 3.3×10^7 cells/mL B16 cell suspension was prepared.
• 1) The back of each mouse (female, 6 weeks of age, C57BL/6N mouse) was depilated using a depilatory under Nembutal anesthesia. • 2) Several days after the depilation, the B16 cell suspension (300 μL) was injected intradermally into the back of the mouse under Nembutal anesthesia. • 3) From the B16 cell injection day (i.e. on day 0) to day 10, the test compound suspension (100 mg/kg/day) was orally administered once a day consecutively. • 4) Ten days after the injection of the cells, the mouse was euthanized with CO2 gas. • 5) A tumor tissue was enucleated from the mouse, and the weight of the tumor tissue was measured with an electronic balance. • 6) A test was performed in the same manner as in 1) to 5) except that the 1% aqueous methyl cellulose solution was used instead of the test compound suspension, and the result was used as a control. (Calculation of Tumor Tissue Weight Inhibition Rate)
A tumor tissue weight inhibition rate (the average of 9 mice per group), which was used as an index of anticancer effect, was calculated according to the following calculation equation. Tumor tissue weight inhibition rate (%)=100−(Mx/Mo)×100 (Calculation Equation) Mo: Tumor tissue weight of control group Mx: Tumor tissue weight of test compound solution administration group (Test Results and Discussion)

[2] = tested on: HUVEC (normal human umbilical vein endothelial cells); assay: VEGF-induced HUVEC proliferation: cell proliferation inhibitory action test; assay type: cell-based; conditions: 72 h, 5 μL of 20 μg/mL test compound solution per well, WST-8 absorbance at 450 nm three days after VEGF addition, read-out: Cell proliferation inhibition rate (%);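 note: each well holds 100 µL cell suspension before compound addition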
Method: A cell proliferation inhibitory action test of the compounds of the present invention was performed using a VEGF-induced HUVEC proliferation evaluation system (HUVEC stands for normal human umbilical vein endothelial cells), which is one of the widely-used methods of evaluating in vitro angiogenesis inhibitory effects of drugs. As one of the widely-used methods of evaluating angiogenesis inhibitory effects of drugs, a cell proliferation inhibitory action test using a VEGF-induced HUVEC proliferation reaction evaluation system has been reported in Cancer Res., 59, 99-106 (1999). According to the method described in the above-mentioned document, a cell proliferation inhibitory action test of the compounds of the present invention was performed, the cell proliferation inhibition rate was calculated, and the angiogenesis inhibitory effect of each of the compounds of the present invention was evaluated using the obtained rate as an index. Each test compound was dissolved in dimethyl sulfoxide (hereinafter abbreviated as DMSO), and the obtained solution was diluted with a commercially available phosphoric acid buffer solution (hereinafter abbreviated as PBS), whereby a 20 μg/mL test compound solution was prepared. HUVEC was suspended in a 0.5% fetal bovine serum (hereinafter abbreviated as FBS)-containing F12K medium, whereby a 2×10^4 cells/mL HUVEC suspension was prepared. VEGF was dissolved in 0.1% bovine serum albumin-containing PBS, and the obtained solution was diluted with the 0.5% FBS-containing F12K medium, whereby a 400 ng/mL VEGF solution was prepared. • 1) The HUVEC suspension was inoculated in an amount of 100 μL into each well of a 96-well plate coated with type I collagen (2×10^3 cells per well). • 2) One day after the inoculation, the test compound solution was added in an amount of 5 μL per well. • 3) One hour after the addition of the test compound solution, the VEGF solution was added in an amount of 5 μL per well. • 4) Three days after the addition of the VEGF solution, WST-8 assay kit (Dojin Chemical Co., Ltd.) was added in an amount of 10 μL per well. • 5) After 3 hours, the above-mentioned plate was attached to an absorptiometer (Multilabel Counter ARVO), and an absorbance at 450 nm of each well suspension (hereinafter referred to as test compound suspension) was measured. • 6) A test was carried out in the same manner as in the above 1) to 5) except that 1.0% DMSO was used instead of the test compound solution. The result was used as a control. Incubation was carried out under conditions of 37° C., 5% carbon dioxide and […] in an incubator throughout the above-mentioned test steps. The cell proliferation inhibition rate (%), which was used as an index of an angiogenesis inhibitory effect, was calculated according to the following calculation equation. Cell proliferation inhibition rate (%)=100−{(Absorbance of test compound suspension−A)/(absorbance of control−A)}×100 (Calculation Equation) A: Absorbance of only cell suspension (cell+medium) (Test Results and Discussion)

[3] = tested on: adjuvant arthritis models in rats; assay: Paw edema inhibitory action test using adjuvant arthritis models in rats; assay type: in vivo; conditions: 504 h; Lewis rat, adjuvant-untreated (secondary inflammation) paw, day 21; 10 mg/kg/day oral once a day, day 0 to day 20; average of 8 rats per group; read-out: Paw edema inhibition rate (%)
Method: A paw edema inhibitory action test of the compounds of the present invention was performed using an adjuvant arthritis model in rats, which is one of the widely-used methods of evaluating in vivo antiarthritis effects of drugs.
As one of the widely-used methods of evaluating antiarthritic effects of drugs, a paw edema inhibitory action test using adjuvant arthritis models in rats is known. Accordingly, a paw edema inhibitory action test of the compounds of the present invention was performed, the paw edema inhibition rate was calculated, and the antiarthritic effect of each of the compounds of the present invention was evaluated using the obtained rate as an index.
A 1% aqueous methyl cellulose solution was added to each test compound to suspend it, whereby a 2 mg/mL test compound suspension was prepared.
Liquid paraffin was added to Mycobacterium butyricum to suspend it, whereby 6 mg/mL adjuvant was prepared.
• 1) The adjuvant (0.1 mL) was injected subcutaneously into a left hind paw sole of each rat (male, 9 weeks of age, Lewis rat) to induce arthritis. • 2) From the adjuvant injection day (i.e. on day 0) to day 20, the test compound suspension (10 mg/kg/day) was orally administered once a day consecutively. • 3) On the adjuvant injection day, day 1, day 4, day 7, day 11, day 14, day 18 and day 21, each paw volume of both hind paws was measured with a plethysmometer. • 4) A test was performed in the same manner as in 1) to 3) except that the 1% aqueous methyl cellulose solution was used instead of the test compound suspension, and the result was used as a control. (Method of Evaluation)
Each paw edema inhibition rate of paw edema in an adjuvant-untreated paw (secondary inflammation paw) in each test compound administration group to paw edema in a secondary inflammation paw in a control group was calculated, and the antiarthritic effect of each of the compounds of the present invention was evaluated using the obtained rate as an index.
The paw edema rate was calculated according to the following calculation equation 1, and then the paw edema inhibition rate (the average of 8 rats per group), which was used as an index of the antiarthritic effect, was calculated according to the calculation equation 2. Paw edema rate (%)=(Paw volume after adjuvant treatment/paw volume before adjuvant treatment)×100 (Calculation Equation 1) Paw edema inhibition rate (%)=100−{(Sx−100)/(So−100)}×100 (Calculation Equation 2) So: Paw edema rate of control group Sx: Paw edema rate of test compound suspension administration group (Test Results and Discussion)

Molecule `CC(=O)Nc1cc(CSc2ncccc2C(=O)Nc2cccc(C)c2)ccn1` [Compound 4-20, 2-(2-Acetylaminopyridin-4-ylmethylthio)-N-(3-methylphenyl)pyridine-3-carboxamide] has a response vs control in vivo at 30 mg/kg/day [1] of 22% and an inhibition in vivo at 100 mg/kg/day (B16 cells) of 84%.
In the case of `CC(=O)N1CCN(c2cc(CSc3ncccc3C(=O)Nc3cc(C)cc(C)c3)ccn2)CC1` [Compound 1-6, 2-[2-(4-Acetylpiperazin-1-yl)pyridin-4-ylmethylthio]-N-(3,5-dimethylphenyl)pyridine-3-carboxamide], the response vs control in vivo at 30 mg/kg/day [1] is reported as 38%, the inhibition at 20 µg/mL (stock) [2] is reported as 100% and the inhibition in vivo at 100 mg/kg/day (B16 cells) is reported as 42%.
Work on `CNc1cc(CSc2ncccc2C(=O)Nc2cc(C)cc(C)c2)ccn1` [Compound 3-6, N-(3,5-Dimethylphenyl)-2-(2-methylaminopyridin-4-ylmethylthio)pyridine-3-carboxamide monohydrochloride] yielded an inhibition at 20 µg/mL (stock) [2] of 100%, an inhibition in vivo at 10 mg/kg/day [3] of 33% and an inhibition in vivo at 100 mg/kg/day (B16 cells) of 71%.
